From US11191762B2, “Alkyl substituted triazole compounds as agonists of the APJ Receptor” (priority 2016, dated 2021)
Read-outs that look alike come from different tables or passages of the source.

Experiments:
[1] = system: heart failure rats; experiment: Cardiac function with ACE inhibitor captopril and APJ agonist in heart failure rats in vivo; design: species or system rat; conditions: captopril alone, acute settings
Excerpt: The interaction between […] (ACE2) and Apelin biology is complicated. To investigate the interaction between the Apelin-APJ and ACE signalling pathways, we examined the improvement in cardiac function with APJ small molecule agonists in the presence of ACE inhibitor captopril in heart failure rats in vivo. […] However, in the presence of an APJ agonist, there was a shift in potency to the left with marked improvement in contractility and ejection fraction without changes in heart rate. These findings provide a new reference for the understanding of the regulation of ACE2 for the renin angiotensin aldosterone system (RAAS), independent of AT1R signaling and offer new potential drug targets for the treatment of diseases such as hypertension and heart failure. This work clearly establishes that combination of an agonist of the APJ receptor with an ARB such as losartan and/or with an ACE inhibitor such as captopril which may play an important role in providing greater efficacy in treating heart failure patients, for example in improving contractility and ejection fraction without changing the heart rate.

[2] = molecular target: human APJ receptor (Homo sapiens (Human), UniProt P35414); experiment: biochemical; assay type: biochemical
Sequence of human APJ receptor (P35414 whole entry): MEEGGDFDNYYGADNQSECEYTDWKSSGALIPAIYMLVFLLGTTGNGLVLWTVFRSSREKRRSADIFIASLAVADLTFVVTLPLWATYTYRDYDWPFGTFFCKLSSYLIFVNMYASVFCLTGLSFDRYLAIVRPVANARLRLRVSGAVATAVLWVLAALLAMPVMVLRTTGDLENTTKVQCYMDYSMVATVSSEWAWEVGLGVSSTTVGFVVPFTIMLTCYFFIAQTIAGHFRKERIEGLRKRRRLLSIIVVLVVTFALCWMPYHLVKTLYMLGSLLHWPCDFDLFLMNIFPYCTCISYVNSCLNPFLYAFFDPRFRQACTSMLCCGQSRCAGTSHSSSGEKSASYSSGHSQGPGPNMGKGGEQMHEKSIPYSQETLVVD
Procedure, shortened: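 [35S]GTPγS binding to membranes from CHO cells stably expressing human APJ, captured on WGA PS beads (5 μg/well). Buffer: 20 mM HEPES pH 7.5, 5 mM MgCl2, 100 mM NaCl, 0.1% BSA, with 3 μM GDP and 0.1 nM [35S]GTPγS final; compounds tested as 22-point 2-fold dilutions.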

[3] = molecular target: human APJ-AT1R (angiotensin Type 1) double stable CHO cell line (Homo sapiens (Human), UniProt P35414); experiment: IP1 accumulation (TR-FRET), AngII cooperativity, APJ-AT1R double stable cells; assay type: cell-based; conditions: APJ small molecule agonists in the presence of AngII
Sequence of human APJ-AT1R (angiotensin Type 1) double stable CHO cell line (P35414 whole entry): as above
Experimental: Single and double stable recombinant cell lines were generated for human APJ and the AT1R receptor in CHO K1 cells tagged either with FLAG or hemagglutinin (HA) tag. Briefly, the CHO-K1 APJ/AT1R cells were seeded in culture medium of DMEM-F12 and 10% FBS at a density of 15 k/well in a 96 well plate overnight. The next day, the culture medium was replaced with medium containing no serum for 4 h. The compound AngII at a range of concentrations (1 pM-10 μM) with or without different concentrations of APJ agonists were diluted in stimulation buffer and added to the cell plate. The plate was sealed and incubated for 1 h. This was followed by addition of IP-d2 conjugate followed by europium cryptate antibody conjugate into the wells. The plate was sealed, followed with incubation for 2 h at RT. Time-resolved fluorescence resonance energy (TR-FRET) at 620 nm and 665 nm was measured after 2 h with an Envision reader. The signal ratios and delta F were calculated and the amount of IP1 produced was inversely proportional to the TR-FRET ratio, 665/620 nm.

[4] = [35S]GTPγS binding, membranes from CHO cells stably expressing human APJ receptor, read-out: Activity hAPJ SPA EC50 IP
[5] = read-out: Activity hAPJ SPA EC50 IP

Compound: C[C@H](CS)C(=O)N1CCC[C@H]1C(=O)O [Captopril, captopril]
- contractility or ejection fraction [1]: does not show a marked improvement in contractility or ejection fraction

Compound: COc1cccc(OC)c1-n1c(Cc2ccncc2)nnc1NS(=O)(=O)[C@@H](C)[C@H](C)c1ncc(Cl)cn1 [Example 141.0, (2S,3R)-3-(5-Chloro-2-pyrimidinyl)-N-(4-(2,6-dimethoxyphenyl)-5-(4-pyridinylmethyl)-4H-1,2,4-triazol-3-yl)-2-butanesulfonamide]
- EC50 [2, 4]: 100 nM

Compound: COCc1nnc(NS(=O)(=O)[C@@H](C)[C@H](OC)c2ncc(Cl)cn2)n1C(C)C [Example 144.0]
- EC50 [2, 4]: 1200 nM

Compound: COCc1nnc(NS(=O)(=O)[C@@H](C)[C@H](OC)c2ncc(Cl)cn2)n1C1(COC)CC1 [Example 145.0]
- EC50 [2, 4]: 240 nM

Compound: COCCc1nnc(NS(=O)(=O)[C@@H](C)[C@H](OC)c2ncc(Cl)cn2)n1C(COC)COC [Example 146.0]
- EC50 [2, 4]: 250 nM

Compound: CCC(CC)n1c(COC)nnc1NS(=O)(=O)[C@@H](C)[C@H](OC)c1ncc(Cl)cn1 [Example 147.0]
- EC50 [2, 4]: 170 nM

Compound: COCCOCc1nnc(NS(=O)(=O)[C@@H](C)[C@H](C)c2ncc(Cl)cn2)n1-c1c(OC)cccc1OC [Example 151.0]
- EC50 [2, 5]: 24 nM

Compound: [2H]C([2H])([2H])OCc1nnc(NS(=O)(=O)[C@@H](C)[C@@H](OC(C)C)c2ncc(C)cn2)n1-c1c(OC)cccc1OC [Example 152.0]
- EC50 [2]: 6.1 nM

Compound: COCc1nnc(NS(=O)(=O)[C@@H](C)[C@@H](OC(C)C)c2ncc(F)cn2)n1-c1c(OC)cccc1OC [Example 154.0]
- EC50 [2, 5]: 6.6 nM

Compound: COCc1nnc(NS(=O)(=O)[C@@H](C)[C@@H](OC(C)C)c2ccc(C)cn2)n1-c1c(OC)cccc1OC [Example 155.0]
- EC50 [2, 4]: 12 nM

Compound: COCCn1c(COC)nnc1NS(=O)(=O)[C@@H](C)[C@H](OC)c1ncc(Cl)cn1 [Example 156.0]
- EC50 [2, 4]: 520 nM

Compound: COCc1nnc(NS(=O)(=O)[C@@H](C)[C@H](OC)c2ncc(Cl)cn2)n1-c1c(Cl)cccc1Cl [Example 157.0]
- EC50 [2, 4]: > 12500 nM

Compound: COc1ccc(Cl)c(-n2c(COC(F)F)nnc2NS(=O)(=O)[C@@H](C)[C@H](OC)c2ncc(Cl)cn2)c1 [Example 160.0]
- EC50 [2, 4]: 21 nM

Compound: COc1cccc(OC)c1-n1c(COC(C)C)nnc1NS(=O)(=O)[C@@H](C)[C@H](C)c1ncc(Cl)cn1 [Example 161.0]
- EC50 [2, 5]: 2.2 nM

Compound: COCc1nnc(NS(=O)(=O)[C@@H](C)[C@H](C)c2ncc(Cl)cn2)n1-c1cc(OC)ccc1Cl [Example 162.0]
- EC50 [2, 4]: 24 nM

Compound: COCc1nnc(NS(=O)(=O)[C@@H](C)[C@@H](OC(C)C)c2ncc(C)cn2)n1-c1cc(OC)ccc1Cl [Example 163.0]
- EC50 [2, 4]: 40 nM

Compound: CCCCc1nnc(NS(=O)(=O)[C@@H](C)[C@H](C)c2ncc(Cl)cn2)n1-c1c(OC)cccc1OC [Example 164.0]
- EC50 [2, 4]: 0.84 nM

Compound: CCCCc1nnc(NS(=O)(=O)[C@@H](C)[C@H](OC)c2ncc(Cl)cn2)n1-c1c(OC)cccc1OC [Example 174.0]
- EC50 [2, 5]: 0.3 nM

Compound: CCCCc1nnc(NS(=O)(=O)[C@@H](C)[C@H](OC)c2ncc(C)cn2)n1-c1c(OC)cccc1OC [Example 175.0]
- EC50 [2, 4]: 1.7 nM

Compound: CCCCc1nnc(NS(=O)(=O)[C@@H](C)[C@H](C)c2ncc(C)cn2)n1-c1c(OC)cccc1OC [Example 176.0]
- EC50 [2, 4]: 1.9 nM

Compound: CCCCc1nc(Cl)c(CO)n1Cc1ccc(-c2ccccc2-c2nn[nH]n2)cc1 [losartan]
- effect of losartan on APJ agonist induced cooperativity [3]: relieved this cooperativity

Compound: (1R,2S)-1-(5-chloro-2-pyrimidinyl)-N-(5-((1R)-1-cyclopropylethyl)-4-(4,6-dimethoxy-5-pyrimidinyl)-4H-1,2,4-triazol-3-yl)-1-methoxy-2-propanesulfonamide and (1R,2S)-1-(5-chloro-2-pyrimidinyl)-N-(5-((1S)-1-cyclopropylethyl)-4-(4,6-dimethoxy-5-pyrimidinyl)-4H-1,2,4-triazol-3-yl)-1-methoxy-2-propanesulfonamide [Example 167.0]
- EC50 [2, 4]: 110 nM

Compound: (1R,2S)-1-(5-chloropyrimidin-2-yl)-1-methoxy-N-(4-(1-methylaclopropyl)-5-(((R)-tetrahydrofurcan-2-yl)methyl)-4H-l,2,4-triazol-3-yl)propane-2-sulfonainide or (1R,2S)-1-(5-chloroprimidin-2-yl)-1-methoxy-N-(4-(1-methylcyclopropyl)-5-(((S)-tetrahydrofuran-2-yl)methyl)-4H-l,2.4-triazol-3-yl)propane-2-sulfonamide [Example 56.0]
- EC50 [2, 4]: 420 nM

Compound: (1R.2S)-1-(5-chloropyrimidin-2-yl)-1-methoxy-N-(4-(1-methylcyclopropyl)-5-(((R)-tetrahydrofuran-2-yl)methyl)-4H-1,2,4-triazol-3-yl)propane-2-sulfonamide or (1R,2S)-1-(5-chloropyrimidin-2-yl)-1-methoxy-N-(4-(1-methylcyclopropyl)-5-(((S)-tetrahydrofuran-2-yl)methyl)-4H-1,2,4-triazol-3-yl)propane-2-sulfonamide [Example 57.0]
- EC50 [2, 4]: 42 nM

Compound: (S)-N-(4-(2,6-dimethoxyphenyl)-5-(methoxymethyl)-4H-1,2,4-triazol-3-yl)-1-(5-fluoropyrimidin-2-yl)piperidine-3-sulfonamide or (R)-N-(4-(2,6-dimethoxyphenyl)-5-(methoxymethyl)-4H-1,2,4-triazol-3-yl)-1-(5-fluoropyrimidin-2-yl)piperidine-3-sulfonamide [Example 77.0]
- EC50 [2, 4]: 176 nM

Compound: (S)-N-(4-(2,6-dimethoxyphenyl)-5-(methoxymethyl)-4H-1,2,4-triazol-3-yl)-l-(5-fluoropyrimidin-2-yl)piperidine-3-sulfonamide or (R)-N-(4-(2,6-dimethoxyphenyl)-5-(methoxymethyl)-4H-1,2,4-triazol-3-yl)-l-(5-fluoropyrimidin-2-yl)piperidine-3-sulfonamide [Example 78.0]
- EC50 [2, 4]: 615 nM
